Reference: PubChem BioAssay AID248 (DTP/NCI, 2004)
“And” between values parts separate entries of the source, which are not always exact repeats. Equal values may be shown once. Toxic doses and inconclusive results are not listed.

System: L1210 leukemia ip in BDF1 mice, survival T/C
Assay: NCI In Vivo Anticancer Drug Screen. Data for tumor model L1210 Leukemia (intraperitoneal) in B6D2F1 (BDF1) mice
Conditions: endpoint: mean survival time, higher = longer survival
Procedure, shortened: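 Read-out is survival time, reported as the treated-group measurement over the vehicle-control measurement.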

[1] = dose: 50.0 mg/kg/injection, schedule: Q01DX009 (ip), vehicle: Klucel (hydroxypropylcellulose) (HPC)
[2] = dose: 100.0 mg/kg/injection, schedule: Q01DX009 (ip), vehicle: Klucel (hydroxypropylcellulose) (HPC)
[3] = dose: 100.0 mg/kg/injection, schedule: Q04DX003 (ip), vehicle: Klucel (hydroxypropylcellulose) (HPC)
[4] = dose: 200.0 mg/kg/injection, schedule: Q01DX009 (ip), vehicle: Klucel (hydroxypropylcellulose) (HPC)
[5] = dose: 200.0 mg/kg/injection, schedule: Q04DX003 (ip), vehicle: Klucel (hydroxypropylcellulose) (HPC)
[6] = dose: 400.0 mg/kg/injection, schedule: Q04DX003 (ip), vehicle: Klucel (hydroxypropylcellulose) (HPC)
[7] = dose: 400.0 mg/kg/injection, schedule: Q01DX009 (ip), vehicle: Klucel (hydroxypropylcellulose) (HPC)
[8] = dose: 400.0 mg/kg/injection, schedule: Q01DX001 (ip), vehicle: carboxymethylcellulose (CMC)
[9] = dose: 100.0 mg/kg/injection, schedule: Q04DX002 (ip), vehicle: saline with Tween-80
[10] = dose: 200.0 mg/kg/injection, schedule: Q04DX002 (ip), vehicle: saline with Tween-80
[11] = dose: 100.0 mg/kg/injection, schedule: Q04DX002 (ip), vehicle: saline
[12] = dose: 200.0 mg/kg/injection, schedule: Q04DX002 (ip), vehicle: saline
[13] = dose: 400.0 mg/kg/injection, schedule: Q04DX002 (ip), vehicle: saline

CNC(=S)N/N=C(\C)CSC/C(C)=N/NC(=S)NC
T/C (dose: 1.56 mg/kg/injection, schedule: Q03HX024 (ip), vehicle: Klucel (hydroxypropylcellulose) (HPC)): 97 % of control | T/C (dose: 3.12 mg/kg/injection, schedule: Q01DX009 (ip), vehicle: Klucel (hydroxypropylcellulose) (HPC)): 95 % of control | T/C (dose: 3.12 mg/kg/injection, schedule: Q03HX024 (ip), vehicle: Klucel (hydroxypropylcellulose) (HPC)): 93 % of control | T/C (dose: 6.25 mg/kg/injection, schedule: Q01DX009 (ip), vehicle: Klucel (hydroxypropylcellulose) (HPC)): 92 % of control | T/C (dose: 6.25 mg/kg/injection, schedule: Q03HX024 (ip), vehicle: Klucel (hydroxypropylcellulose) (HPC)): 92 % of control | T/C (dose: 6.25 mg/kg/injection, schedule: Q04DX003 (ip), vehicle: Klucel (hydroxypropylcellulose) (HPC)): 95 % of control | T/C (dose: 12.5 mg/kg/injection, schedule: Q01DX009 (ip), vehicle: Klucel (hydroxypropylcellulose) (HPC)): 93 % of control | T/C (dose: 12.5 mg/kg/injection, schedule: Q03HX024 (ip), vehicle: Klucel (hydroxypropylcellulose) (HPC)): 95 % of control | T/C (dose: 12.5 mg/kg/injection, schedule: Q04DX003 (ip), vehicle: Klucel (hydroxypropylcellulose) (HPC)): 102 % of control | T/C (dose: 25.0 mg/kg/injection, schedule: Q01DX009 (ip), vehicle: Klucel (hydroxypropylcellulose) (HPC)): 109 % of control | T/C (dose: 25.0 mg/kg/injection, schedule: Q03HX024 (ip), vehicle: Klucel (hydroxypropylcellulose) (HPC)): 103 % of control | T/C (dose: 25.0 mg/kg/injection, schedule: Q04DX003 (ip), vehicle: Klucel (hydroxypropylcellulose) (HPC)): 97 % of control | T/C (dose: 30.0 mg/kg/injection, schedule: Q04DX003 (ip), vehicle: saline): 98 % of control | T/C [1]: 104 % of control | T/C (dose: 50.0 mg/kg/injection, schedule: Q03HX024 (ip), vehicle: Klucel (hydroxypropylcellulose) (HPC)): 106 % of control | T/C (dose: 60.0 mg/kg/injection, schedule: Q04DX003 (ip), vehicle: saline): 98 % of control | T/C [2]: 108 % of control | T/C (dose: 100.0 mg/kg/injection, schedule: Q03HX024 (ip), vehicle: Klucel (hydroxypropylcellulose) (HPC)): 116 % of control | T/C [3]: 92 % of control | T/C (dose: 120.0 mg/kg/injection, schedule: Q04DX003 (ip), vehicle: saline): 101 % of control | T/C [4]: 96 % of control | T/C [5]: 107 % of control | T/C [6]: 98 % of control

COc1ccc(OC)c(NC(=S)Nc2ccccc2)c1
T/C [2]: 98 % of control | T/C [4]: 97 % of control | T/C [7]: 92 % of control

Cc1cccc(Nc2cc(=O)[nH]c(=O)[nH]2)c1C
T/C (dose: 150.0 mg/kg/injection, schedule: Q01DX001 (ip), vehicle: saline with Tween-80): 90 % of control | T/C (dose: 300.0 mg/kg/injection, schedule: Q01DX001 (ip), vehicle: saline with Tween-80): 95 % of control

c1ccc2c(c1)ccc1ccc[s+]c12
T/C [1]: 95 % of control | T/C (dose: 50.0 mg/kg/injection, schedule: Q04DX003 (ip), vehicle: Klucel (hydroxypropylcellulose) (HPC)): 108 % of control | T/C (dose: 100.0 mg/kg/injection, schedule: Q01DX001 (ip), vehicle: acetone): 103 % of control | T/C [2]: 94 % of control | T/C [3]: 104 % of control | T/C (dose: 200.0 mg/kg/injection, schedule: Q01DX001 (ip), vehicle: acetone): 103 % of control | T/C [4]: 97 % of control | T/C [5]: 104 % of control | T/C (dose: 400.0 mg/kg/injection, schedule: Q01DX001 (ip), vehicle: acetone): 106 % of control

O=c1[nH]nc(S(=O)(=O)N2CCCC2)c(=O)[nH]1
T/C (dose: 100.0 mg/kg/injection, schedule: Q01DX001 (ip), vehicle: carboxymethylcellulose (CMC)): 98 % of control | T/C (dose: 200.0 mg/kg/injection, schedule: Q01DX001 (ip), vehicle: carboxymethylcellulose (CMC)): 98 % of control | T/C [8]: 93 % of control

O=C1NC(c2cccs2)(c2cccs2)C(=O)N1Cl
T/C (dose: 6.25 mg/kg/injection, schedule: Q01DX009 (ip), vehicle: water): 100 % of control | T/C (dose: 12.5 mg/kg/injection, schedule: Q01DX009 (ip), vehicle: water): 97 % of control and 116 % of control | T/C (dose: 25.0 mg/kg/injection, schedule: Q01DX009 (ip), vehicle: water): 98 % of control and 113 % of control | T/C (dose: 25.0 mg/kg/injection, schedule: Q04DX003 (ip), vehicle: water): 92 % of control | T/C (dose: 50.0 mg/kg/injection, schedule: Q01DX009 (ip), vehicle: water): 104 % of control and 87 % of control | T/C (dose: 50.0 mg/kg/injection, schedule: Q04DX003 (ip), vehicle: water): 100 % of control | T/C (dose: 100.0 mg/kg/injection, schedule: Q01DX009 (ip), vehicle: water): 87 % of control | T/C (dose: 100.0 mg/kg/injection, schedule: Q04DX003 (ip), vehicle: water): 97 % of control and 112 % of control | T/C (dose: 150.0 mg/kg/injection, schedule: Q01DX009 (ip), vehicle: water): 116 % of control | T/C (dose: 200.0 mg/kg/injection, schedule: Q01DX009 (ip), vehicle: water): 93 % of control

CCC1(c2ccccc2)C(=O)NC(=O)N(Cc2ccccc2)C1=O (centres undefined)
T/C (dose: 100.0 mg/kg/injection, schedule: Q01DX009 (ip), vehicle: saline with Tween-80): 109 % of control | T/C [9]: 89 % of control | T/C (dose: 200.0 mg/kg/injection, schedule: Q01DX009 (ip), vehicle: saline with Tween-80): 98 % of control | T/C [10]: 95 % of control | T/C (dose: 400.0 mg/kg/injection, schedule: Q01DX009 (ip), vehicle: saline with Tween-80): 98 % of control | T/C (dose: 400.0 mg/kg/injection, schedule: Q04DX002 (ip), vehicle: saline with Tween-80): 103 % of control

CC(C)(CP(c1ccccc1)c1ccccc1)c1ccccc1
T/C (dose: 25.0 mg/kg/injection, schedule: Q04DX002 (ip), vehicle: saline with Tween-80): 95 % of control | T/C (dose: 50.0 mg/kg/injection, schedule: Q04DX002 (ip), vehicle: saline with Tween-80): 95 % of control | T/C [9]: 89 % of control | T/C [10]: 92 % of control

S=C(SSC(=S)N1CCCCC1)N1CCCCC1
T/C (dose: 100.0 mg/kg/injection, schedule: Q04DX003 (ip), vehicle: saline): 104 % of control | T/C (dose: 200.0 mg/kg/injection, schedule: Q04DX003 (ip), vehicle: saline): 98 % of control | T/C (dose: 400.0 mg/kg/injection, schedule: Q04DX003 (ip), vehicle: saline): 101 % of control

CSc1nc(N)n(C)n1
T/C [11]: 123 % of control | T/C [12]: 104 % of control | T/C [13]: 93 % of control

CCOCCOC(=O)COCC(=O)OCCOCC
T/C (dose: 100.0 mg/kg/injection, schedule: Q01DX001 (ip), vehicle: saline): 100 % of control | T/C (dose: 200.0 mg/kg/injection, schedule: Q01DX001 (ip), vehicle: saline): 94 % of control | T/C (dose: 400.0 mg/kg/injection, schedule: Q01DX001 (ip), vehicle: saline): 98 % of control

Cc1ccc(NC(=O)N(CCI)N=O)cc1
T/C (dose: 17.0 mg/kg/injection, schedule: Q01DX015 (ip), vehicle: carboxymethylcellulose (CMC)): 110 % of control | T/C (dose: 58.0 mg/kg/injection, schedule: Q01DX015 (ip), vehicle: carboxymethylcellulose (CMC)): 161 % of control | T/C (dose: 88.0 mg/kg/injection, schedule: Q01DX015 (ip), vehicle: carboxymethylcellulose (CMC)): 157 % of control | T/C (dose: 133.0 mg/kg/injection, schedule: Q01DX015 (ip), vehicle: carboxymethylcellulose (CMC)): 92 % of control | T/C (dose: 177.0 mg/kg/injection, schedule: Q01DX001 (ip), vehicle: carboxymethylcellulose (CMC)): 121 % of control | T/C (dose: 200.0 mg/kg/injection, schedule: Q01DX015 (ip), vehicle: carboxymethylcellulose (CMC)): 111 % of control and 113 % of control | T/C [8]: 159 % of control

CCN(CC)CC(=O)c1ccc(O)c(O)c1
T/C (dose: 53.0 mg/kg/injection, schedule: Q01DX Z (ip), vehicle: carboxymethylcellulose (CMC)): 109 % of control | T/C (dose: 83.0 mg/kg/injection, schedule: Q01DX Z (ip), vehicle: carboxymethylcellulose (CMC)): 120 % of control | T/C (dose: 125.0 mg/kg/injection, schedule: Q01DX Z (ip), vehicle: carboxymethylcellulose (CMC)): 105 % of control | T/C (dose: 187.0 mg/kg/injection, schedule: Q01DX Z (ip), vehicle: carboxymethylcellulose (CMC)): 115 % of control

COc1cc2c(cc1OC)C(CNC(=O)/C=C/c1ccccc1)C2 (centres undefined)
T/C [2]: 106 % of control | T/C [3]: 101 % of control | T/C [4]: 101 % of control | T/C [5]: 94 % of control | T/C [7]: 95 % of control | T/C [6]: 97 % of control

CCOC(=O)c1nnn(-c2cccnc2)c1C
T/C [11]: 99 % of control | T/C [12]: 101 % of control | T/C [13]: 92 % of control
